Source: patent publication US20250059166A1, “PIPERIDINYLPYRIDINYLCARBONITRILE DERIVATIVES AS INHIBITORS OF GLUTAMINYL-PEPTIDE CYCLOTRANSFERASE AND GLUTAMINYL-PEPTIDE CYCLOTRANSFERASE LIKE PROTEIN” (Boehringer Ingelheim International GmbH, priority 2023, published 2025)
Read-outs that look alike come from different tables or passages of the source.

What was measured:
QPCTL = target: T1, QPCTL (Homo sapiens, UniProt Q9NXS2); assay: Assay A: biochemical QPCTL activity assay (MALDI-TOF MS, CD47 peptide substrate); details: compounds of the invention; 0.5 nM enzyme, 10 μM CD47 peptide substrate; read-out: Inhibition of QPCTL: IC50
T1 construct: made in house
Procedure: (§1) QPCT or QPCTL dependent conversion of N-terminal glutamine to pyroglutamate of CD47 was monitored via MALDI-TOF MS. Test compounds were dissolved in 100% DMSO and serially diluted into clear 1,536-well microtiter plates. Enzymatic reactions were set up in assay buffer containing 20 mM Tris pH 7.5, 0.1 mM TCEP, 0.01% BSA, and 0.001% Tween20. […] The plates were incubated for 10 min in a humidified incubator at 24° C. Subsequently, 2.5 μL of CD47 peptide substrate surrogate (^19[…]^33) was added to each well (final concentration: 10 μM for QPCTL/20 μM for QPCT). The plates were mixed for 30 sec at 1,000 rpm and subsequently incubated for 40 min in a humidified incubator at 24° C. […] The plates were sealed with an adhesive foil, mixed for 30 s at 1,000 rpm and stored at room temperature until preparation of the MALDI target plates. […] QPCT or QPCTL activity was monitored by calculating the ratio between product and internal standard signals followed by normalization to high (100% activity) and low (0% activity) controls. Determination of compound potencies was obtained by fitting the dose-response data to a four-parameter logistical equation.

QPCT = target: T2, QPCT (Homo sapiens, UniProt Q16769); assay: Assay A: biochemical QPCT activity assay (MALDI-TOF MS, CD47 peptide substrate); details: compounds of the invention; 0.5 nM enzyme, 20 μM CD47 peptide substrate; read-out: Inhibition of QPCT: IC50
T2 construct: purchased Origine (so in the source)
Procedure: as §1

[1] = tested on: SIRPα signalling induced by Raji cells; assay: Assay B: SIRPα signalling assay using Raji cells; format: cell-based; details: Homo sapiens, read-out: Inhibition of SIRPα signalling induced by Raji cells: IC50
Procedure: (§2) Two cell types are independently used: the Raji cell line (lymphoblast-like human cell line derived from B lymphocytes from a Burkitt's lymphoma patient in 1963) and A549 cells (adenocarcinoma human alveolar basal epithelial cells).
(§3) Test compounds were dissolved in 100% DMSO and serially diluted into a white 384-well microtiter cell culture plate (PerkinElmer #60076780 in case of Raji assay; PDL-coated plates Greiner #781945 in case of A549 assay). 5000 Raji cells (ATCC #CC86) or 5000 A549 cells (ATCC #CCL-185) in Assay Complete Cell Plating reagent 30 (DiscoverX 93-0563R30B) were added per well. The assay plate was incubated for 48 h at 37° C., 95% humidity and 5% CO2. 15000 reporter cells (Jurkat PathHunter SIRPαV1, DiscoverX #93-1135C19) were added to each well, and the plate was incubated for 5 h at 37° C., 95% humidity and 5% CO2. Bioassay reagent 1 of the PathHunter Bioassay detection kit (DiscoverX 93-0001) was added to each well of the plate using a multichannel pipette followed by a 15 min incubation at room temperature. Afterwards bioassay reagent 2 was added followed by 60 min incubation at room temperature (incubation in the dark).
(§4) The analysis of the data was performed using the luminescence signal generated by beta-galactosidase in the PathHunter reporter cell line. The luminescence measurement was done using a Pherastar Multi-Mode Reader. Dose-response curves & IC50 data were calculated with 4-parameter sigmoidal dose response formula.

[2] = tested on: SIRPα signalling induced by A549 cells; assay: Assay B: SIRPα signalling assay using A549 cells; format: cell-based; details: Homo sapiens
Procedure: as §2, §3, §4

[3] = Assay C: permeability in CACO-2 cells; format: in vitro ADME; details: human
Procedure: Caco-2 cells (1-2×10^5 cells/1 cm^2 area) are seeded on filter inserts (Costar transwell polycarbonate or PET filters, 0.4 μm pore size) and cultured (DMEM) for 10 to 25 days. Compounds are dissolved in appropriate solvent (like DMSO, 1-20 mM stock solutions). […] The transport solution (TL) is applied to the apical or basolateral donor side for measuring A-B or B-A permeability (3 filter replicates), respectively. Samples are collected at the start and end of experiment from the donor and at various time intervals for up to 2 hours also from the receiver side for concentration measurement by HPLC-MS/MS or scintillation counting. Sampled receiver volumes are replaced with fresh receiver solution.
Efflux ratio(ER)=permeabilityB−A/permeabilityA−B

[4] = compounds of the invention, Raji cells 48 h, Jurkat PathHunter SIRPαV1 reporter cells 5 h
[5] = compounds of the invention, A549 cells 48 h, Jurkat PathHunter SIRPαV1 reporter cells 5 h, read-out: Inhibition of SIRPα signalling induced by A549 cells: IC50
[6] = pH 7.2, compounds of the invention, Caco-2, permeability B-A / permeability A-B
[7] = compounds of the invention, Caco-2, apical to basolateral, pH 7.2

T1 sequence (Q9NXS2 whole entry): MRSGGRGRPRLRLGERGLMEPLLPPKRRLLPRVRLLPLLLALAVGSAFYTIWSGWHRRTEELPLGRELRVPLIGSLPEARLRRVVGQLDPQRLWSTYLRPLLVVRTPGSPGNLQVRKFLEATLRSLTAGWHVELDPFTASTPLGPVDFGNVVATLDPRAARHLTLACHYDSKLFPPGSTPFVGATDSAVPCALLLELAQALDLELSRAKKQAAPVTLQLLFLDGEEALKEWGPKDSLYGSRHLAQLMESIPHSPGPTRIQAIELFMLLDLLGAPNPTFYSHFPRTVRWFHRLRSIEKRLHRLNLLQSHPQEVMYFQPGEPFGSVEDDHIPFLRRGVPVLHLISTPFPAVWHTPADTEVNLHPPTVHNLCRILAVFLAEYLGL
T2 sequence (Q16769 29-361): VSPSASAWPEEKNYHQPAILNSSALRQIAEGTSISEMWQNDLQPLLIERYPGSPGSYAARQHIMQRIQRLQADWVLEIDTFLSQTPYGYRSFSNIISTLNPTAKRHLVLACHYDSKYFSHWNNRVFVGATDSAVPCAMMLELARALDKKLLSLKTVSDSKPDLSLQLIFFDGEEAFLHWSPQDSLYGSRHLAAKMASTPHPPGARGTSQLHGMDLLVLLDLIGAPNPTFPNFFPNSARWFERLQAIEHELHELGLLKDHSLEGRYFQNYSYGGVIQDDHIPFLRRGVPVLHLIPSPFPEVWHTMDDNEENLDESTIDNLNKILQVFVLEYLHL

IC50 (QPCTL) | IC50 (QPCT) | IC50 [1, 4] | IC50 [2, 5] | efflux ratio at 2 h [3, 6] | Papp A→B at 2 h [3, 7] | Papp A→B at 2 h ([3]; Caco-2, pH 7.2) | efflux ratio at 2 h ([3]; Caco-2, pH 7.2) | IC50 ([1]; prior art compounds, Raji cells 48 h, Jurkat PathHunter SIRPαV1 reporter cells 5 h) | IC50 ([2]; prior art compounds, A549 cells 48 h, Jurkat PathHunter SIRPαV1 reporter cells 5 h, read-out: Inhibition of SIRPα signalling induced by A549 cells: IC50) | SMILES | IC50 ([1]; Raji) | IC50 ([2]; A549, read-out: Inhibition of SIRPα signalling induced by A549 cells: IC50)
2 nM | 2 nM | 26 nM | 50 nM | 10.1 | 7.2 ×10⁻⁶ cm/s | – | – | – | – | Cn1cnnc1C1(F)CCN(c2c(C#N)cc(C(F)(F)F)nc2-c2cnc3nn(C(C)(C)C(F)(F)F)cc3c2)CC1 [Example 6] | – | –
4 nM | 5 nM | 258 nM | 115 nM | 2.8 | 18 ×10⁻⁶ cm/s | – | – | – | – | Cn1cnnc1C1(F)CCN(c2c(-c3ccc(F)nc3)ncc(C(F)(F)F)c2C#N)CC1 [Example 40] | – | –
10 nM | 27 nM | 352 nM | 201 nM | 1.2 | 58 ×10⁻⁶ cm/s | – | – | – | – | Cn1cnnc1C1(F)CCN(c2c(C#N)cc(C(F)(F)F)nc2-c2cnc(F)cc2Cl)CC1 [Example 10] | – | –
13 nM | 35 nM | 1370 nM | 615 nM | 4.5 | 14 ×10⁻⁶ cm/s | – | – | – | – | Cc1cncc(-c2nccc(C#N)c2N2CCC(F)(c3nncn3C)CC2)c1 [Example 20] | – | –
2 nM | 6 nM | 95 nM | 35 nM | 2.2 | 23 ×10⁻⁶ cm/s | – | – | – | – | Cn1cnnc1C1(F)CCN(c2c(C#N)cc(Cl)nc2-c2ccc(F)nc2)CC1 [Example 37] | – | –
1 nM | 1 nM | 14 nM | 28 nM | 1 | 47 ×10⁻⁶ cm/s | – | – | – | – | Cn1cnnc1C1(F)CCN(c2c(C#N)cc(C(F)(F)F)nc2-c2cnc3nn(C(C)(C)C)c(Cl)c3c2)CC1 [Example 3] | – | –
– | – | – | – | – | – | 4.2 ×10⁻⁶ cm/s | – | – | – | Cn1cnnc1C1CCN(c2ncccc2-c2cccnc2)CC1 [SEN180, reference compound] | – | –
– | – | – | – | – | – | 68 ×10⁻⁶ cm/s | 0.5 | – | – | Nc1nnc(C2CCN(c3ncccc3-c3ccc(F)nc3)CC2)s1 [Compound 1095] | – | –
1 nM | 1 nM | 9 nM | 7 nM | 9.9 | 7.6 ×10⁻⁶ cm/s | – | – | – | – | Cc1cc(C#N)c(N2CCC(F)(c3nncn3C)CC2)c(-c2cnc3nn(C(C)(C)C)c(F)c3c2)n1 [Example 25] | – | –
– | – | – | – | – | – | – | – | > 10000 nM | > 10000 nM | Cn1cnnc1C1CCN(S(=O)(=O)c2cccc(Nc3ccc(OCc4ccccc4)nc3)c2)CC1 [Compound 23] | – | –
2 nM | 2 nM | 26 nM | 34 nM | 2.4 | 38 ×10⁻⁶ cm/s | – | – | – | – | Cc1cc(C#N)c(N2CCC(F)(c3nncn3C)CC2)c(-c2cnc3nn(C(C)(C)C)c(C(F)(F)F)c3c2)n1 [Example 27] | – | –
2 nM | 2 nM | 102 nM | 40 nM | 13.9 | 7.2 ×10⁻⁶ cm/s | – | – | – | – | Cn1cnnc1C1(F)CCN(c2c(C#N)ccnc2-c2cnc3nn(C(C)(C)C)nc3c2)CC1 [Example 17] | – | –
1 nM | 1 nM | 9 nM | 17 nM | 6.4 | 5.3 ×10⁻⁶ cm/s | – | – | – | – | Cn1cnnc1C1(F)CCN(c2c(C#N)cc(C(F)(F)F)nc2-c2cnc3nn(C(C)(C)C)cc3c2)CC1 [Example 1] | – | –
33 nM | 52 nM | 942 nM | 292 nM | 2.8 | 27 ×10⁻⁶ cm/s | – | – | – | – | Cn1cnnc1C1(F)CCN(c2c(C#N)ccnc2-c2cnc3nn(C(F)(F)F)nc3c2)CC1 [Example 18] | – | –
– | – | – | – | – | – | 73 ×10⁻⁶ cm/s | 1 | – | – | Nc1ncc(C2CCN(c3ncccc3-c3ccc(F)nc3)CC2)s1 [Compound 1094] | – | –
24 nM | 29 nM | 860 nM | 599 nM | 6.9 | 4.9 ×10⁻⁶ cm/s | – | – | – | – | Cn1cnnc1C1(F)CCN(c2c(C#N)cc(C(F)(F)F)nc2-c2cnc3nc(C(F)(F)F)nn3c2)CC1 [Example 12] | – | –
8 nM | 16 nM | 54 nM | 70 nM | 5.7 | 3.7 ×10⁻⁶ cm/s | – | – | – | – | Cn1cnnc1C1CCN(c2c(C#N)cc(C(F)(F)F)nc2-c2cnc3nn(C(C)(C)C)c(C(F)(F)F)c3c2)CC1 [Example 13] | – | –
18 nM | 62 nM | 2190 nM | 410 nM | 2.6 | 11 ×10⁻⁶ cm/s | – | – | – | – | Cn1cnnc1C1(F)CCN(c2c(C#N)ccnc2-c2cccnc2)CC1 [Example 19] | – | –
56 nM | 100 nM | 869 nM | 365 nM | 1.4 | 45 ×10⁻⁶ cm/s | – | – | – | – | Cn1cnnc1C1(F)CCN(c2c(C#N)cc(C(F)(F)F)nc2-c2cnc3nn(C(F)(F)F)nc3c2)CC1 [Example 9] | – | –
9 nM | 5 nM | 31 nM | 46 nM | 0.6 | 99.5 ×10⁻⁶ cm/s | – | – | – | – | Cn1cnnc1C1(F)CCN(c2c(C#N)cc(C(F)(F)F)nc2-c2cnc3nn(C(C)(C)C)c(C(F)(F)F)c3c2)CC1 [Example 4] | – | –
1 nM | < 1 nM | 21 nM | 6 nM | 10.9 | 6.6 ×10⁻⁶ cm/s | – | – | – | – | Cn1cnnc1C1(F)CCN(c2c(-c3cnc4nn(C(C)(C)C)cc4c3)ncc(Cl)c2C#N)CC1 [Example 38] | – | –
2 nM | 6 nM | 37 nM | 20 nM | 1.7 | 23 ×10⁻⁶ cm/s | – | – | – | – | Cn1cnnc1C1(F)CCN(c2c(C#N)cc(C(C)(F)F)nc2-c2ccc(F)nc2)CC1 [Example 34] | – | –
1 nM | 1 nM | 4 nM | 21 nM | 8.2 | 8.2 ×10⁻⁶ cm/s | – | – | – | – | Cn1cnnc1C1(F)CCN(c2c(C#N)cc(C(C)(F)F)nc2-c2cnc3nn(C(C)(C)C)cc3c2)CC1 [Example 32] | – | –
5 nM | 15 nM | 435 nM | 218 nM | 1.6 | 34 ×10⁻⁶ cm/s | – | – | – | – | Cn1cnnc1C1(F)CCN(c2c(C#N)ccnc2-c2cnc(F)cc2Cl)CC1 [Example 22] | – | –
7 nM | 11 nM | 321 nM | 349 nM | 14.1 | 1 ×10⁻⁶ cm/s | – | – | – | – | Cn1cnnc1C1(F)CCN(c2c(C#N)ccnc2-n2cnc3nc(C(F)(F)F)ccc32)CC1 [Example 24] | – | –
1 nM | 1 nM | 25 nM | 20 nM | 9.4 | 9.4 ×10⁻⁶ cm/s | – | – | – | – | CC(C)n1nc2ncc(-c3nc(C4CC4)cc(C#N)c3N3CCC(F)(c4nncn4C)CC3)cc2c1F [Example 30] | – | –

SMILES | IC50 (QPCTL) | IC50 (QPCT) | IC50 [1, 4] | IC50 [2, 5] | efflux ratio at 2 h [3, 6] | Papp A→B at 2 h [3, 7] | Papp A→B at 2 h ([3]; Caco-2, pH 7.2) | efflux ratio at 2 h ([3]; Caco-2, pH 7.2) | IC50 ([1]; prior art compounds, Raji cells 48 h, Jurkat PathHunter SIRPαV1 reporter cells 5 h) | IC50 ([2]; prior art compounds, A549 cells 48 h, Jurkat PathHunter SIRPαV1 reporter cells 5 h, read-out: Inhibition of SIRPα signalling induced by A549 cells: IC50) | IC50 ([1]; Raji) | IC50 ([2]; A549, read-out: Inhibition of SIRPα signalling induced by A549 cells: IC50)
Cn1cnnc1C1CCN(c2ncccc2-c2ccc(F)nc2)CC1 [SEN177, reference compound] | – | – | – | – | – | – | 11 ×10⁻⁶ cm/s | – | – | – | 1360 nM | 214 nM
